Test results reported in patent publication US12600696B2 (XENIOPRO GMBH, priority 2017, dated 2026).

System: Notch signaling (hNotch1ΔE, human Notch1 receptor) in HeLa cells
Assay: Notch reporter assay (luciferase luminescence readout in transfected HeLa cells)
Type: cell-based
Conditions: Homo sapiens, 20 hours, relative to DMSO baseline level of 1.0, read-out: AVEw, weighted arithmetic mean of double-normalized Notch-reporter luciferase luminescence values (Activity Range)
Method in brief: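 HeLa cells were transiently transfected for 24 h with membrane-tethered constitutively active hNotch1ΔE, a CSL-promoter Firefly luciferase reporter and constitutive SV40-Renilla luciferase. Compounds were then applied at 10 μM (0.1% DMSO) for 20 h. Firefly/Renilla dual-luciferase ratios were normalized to DMSO control (baseline 1.0), outliers were excluded, and replicate values were averaged across ≥3 independent experiments.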

| SMILES | fold induction at 10 µM |
| --- | --- |
| NC(=O)c1ccc(Oc2ccc(C3CC4CCC3C4)cc2)cc1 (racemic) [Compound 159, (±)-4-(4-(Bicyclo[2.2.1]heptan-2-yl)phenoxy)benzamide] | 1.1 to 1.2 |
| CCCc1ccc(Oc2ccc(C(=O)NO)cc2)cc1 [Compound 166, N-hydroxy-4-(4-propylphenoxy)benzamide] | 1.2 to 1.3 |
| CCC(C)(C)c1ccc(Oc2ccc(C(=O)NO)cc2)cc1 [Compound 171, N-hydroxy-4-(4-(tert-pentyl)phenoxy)benzamide] | 1.1 to 1.2 |
| O=C(NO)c1ccc(Oc2ccc(C3CCCCC3)cc2)cc1 [Compound 182, 4-(4-cyclohexylphenoxy)-N-hydroxybenzamide] | 1.3 to 1.4 |
| O=C(NO)c1ccc(Oc2ccc(C34CC5CC(CC(C5)C3)C4)cc2)cc1 [Compound 186, 4-(4-(Adamantan-1-yl)phenoxy)-N-hydroxybenzamide] | ≥ 2 |
| CC(C)c1ccc(Oc2ccc(C(=O)NO)cn2)cc1 [Compound 272, N-hydroxy-6-(4-isopropylphenoxy)nicotinamide] | 1.7 to 2 |
| CCC(C)(C)c1ccc(Oc2ccc(C(=O)NO)cn2)cc1 [Compound 273, N-hydroxy-6-(4-(tert-pentyl)phenoxy)nicotinamide] | 1.2 to 1.3 |
| O=C(NO)c1ccc(Oc2ccc(C3CCCCC3)cc2)nc1 [Compound 284, 6-(4-Cyclohexylphenoxy)-N-hydroxynicotinamide] | 1.7 to 2 |
| O=C(NO)c1ccc(Oc2ccc(C3CC4CCC3CC4)cc2)nc1 (stereo not drawn) [Compound 287, 6-(4-((1s,4s)-bicyclo[2.2.2]octan-2-yl)phenoxy)-N-hydroxynicotinamide] | 1.1 to 1.2 |
| O=C(NO)c1ccc(Oc2ccc(C34CC5CC(CC(C5)C3)C4)cc2)nc1 [Compound 288, 6-(4-((3r,5r,7r)-adamantan-1-yl)phenoxy)-N-hydroxynicotinamide] | 1.7 to 2 |
| CNC(=O)c1ccc(Oc2ccc(C(F)(F)F)cc2)nc1 [Compound 300, N-methyl-6-(4-(trifluoromethyl)phenoxy)nicotinamide] | 1.1 to 1.2 |
| CN(C)C(=O)c1ccc(Oc2ccc(C3CCCCC3)cc2)nc1 [Compound 334, 6-(4-cyclohexylphenoxy)-N,N-dimethylnicotinamide] | 1.3 to 1.4 |
| O=C(NO)c1ccc(Oc2ccc(C34CC5CC(CC(C5)C3)C4)cc2)c(F)c1 [Compound 544, 4-(4-(Adamantan-1-yl)phenoxy)-3-fluoro-N-hydroxybenzamide] | 1.4 to 1.7 |
| O=C(NO)c1cnc(Oc2ccc(C3CCCCC3)cc2)c(F)c1 [Compound 644, 6-(4-Cyclohexylphenoxy)-5-fluoro-N-hydroxynicotinamide] | 1.1 to 1.2 |
| Oc1ccc(C=Cc2cc(O)cc(O)c2)cc1 [RES, resveratrol, reference compound] | 1.5 |
